Source: ChEMBL document CHEMBL1143179 (Bioorg Med Chem Lett, 2008)
Calls of active or inactive are those of the source. No cut-off for these calls is given here.

Assays:
[1] = molecular target: T1, Prostaglandin E2 receptor EP2 subtype (Homo sapiens, UniProt P43116); test: Displacement of [3H]PGE2 from human EP2 receptor
[2] = molecular target: T1, Prostaglandin E2 receptor EP2 subtype; test: Agonist activity at human EP2 receptor by cAMP assay; type: functional
Mus musculus [3] = test: Induction of ovulation in sc dosed CD1 mouse; type: functional
Mus musculus [4] = test: Induction of ovulation in po dosed CD1 mouse; type: functional
[5] = molecular target: T2, Prostaglandin E2 receptor EP4 subtype (Homo sapiens, UniProt P35408); test: Displacement of […] from human EP4 receptor
[6] = molecular target: T2, Prostaglandin E2 receptor EP4 subtype; test: Agonist activity at human EP4 receptor by cAMP assay; type: functional
Cavia porcellus [7] = species on record: Cavia porcellus; test: Inhibition of methacholine-induced bronchoconstriction in Duncan-Hartley guinea pig; type: functional
Cavia porcellus [8] = test: Inhibition of methacholine-induced bronchoconstriction in Duncan-Hartley guinea pig at >3 ug/kg; type: functional
[9] = Drug distribution in rat at 10 mg/kg, iv; type: ADME, organism-based; set-up: dose 10 mg/kg, route intravenous; conditions: in vivo, read-out: Drug uptake
Rattus norvegicus [10] = test: AUC (0 to 48 hrs) in rat at 10 mg/kg, iv; type: ADME, organism-based, Plasma; set-up: time < 48 hr, dose 10 mg/kg, route intravenous; conditions: in vivo
Rattus norvegicus [11] = test: AUC (0 to 48 hrs) in rat at 10 mg/kg, sc; type: ADME, organism-based, Plasma; set-up: time < 48 hr, dose 10 mg/kg, route subcutaneous; conditions: in vivo
Rattus norvegicus [12] = test: AUC (0 to 48 hrs) in rat at 10 mg/kg, po; type: ADME, organism-based, Plasma; set-up: time < 48 hr, dose 10 mg/kg, route oral; conditions: in vivo
[13] = Half life in rat at 10 mg/kg, iv; type: ADME, organism-based; set-up: dose 10 mg/kg, route intravenous; conditions: in vivo
[14] = Half life in rat at 10 mg/kg, sc; type: ADME, organism-based; set-up: dose 10 mg/kg, route subcutaneous; conditions: in vivo
[15] = Half life in rat at 10 mg/kg, po; type: ADME, organism-based; set-up: dose 10 mg/kg, route oral; conditions: in vivo
[16] = Tmax in rat at 10 mg/kg, iv; type: ADME, organism-based; set-up: dose 10 mg/kg, route intravenous; conditions: in vivo
[17] = Tmax in rat at 10 mg/kg, sc; type: ADME, organism-based; set-up: dose 10 mg/kg, route subcutaneous; conditions: in vivo
[18] = Tmax in rat at 10 mg/kg, po; type: ADME, organism-based; set-up: dose 10 mg/kg, route oral; conditions: in vivo
[19] = Clearance in rat at 10 mg/kg; type: ADME, organism-based; set-up: dose 10 mg/kg; conditions: in vivo
Rattus norvegicus [20] = test: Oral bioavailability in rat at 10 mg/kg; type: ADME, organism-based; conditions: in vivo
Rattus norvegicus [21] = test: Bioavailability in rat at 10 mg/kg, sc; type: ADME, organism-based; conditions: in vivo

T2 sequence (P35408 whole entry): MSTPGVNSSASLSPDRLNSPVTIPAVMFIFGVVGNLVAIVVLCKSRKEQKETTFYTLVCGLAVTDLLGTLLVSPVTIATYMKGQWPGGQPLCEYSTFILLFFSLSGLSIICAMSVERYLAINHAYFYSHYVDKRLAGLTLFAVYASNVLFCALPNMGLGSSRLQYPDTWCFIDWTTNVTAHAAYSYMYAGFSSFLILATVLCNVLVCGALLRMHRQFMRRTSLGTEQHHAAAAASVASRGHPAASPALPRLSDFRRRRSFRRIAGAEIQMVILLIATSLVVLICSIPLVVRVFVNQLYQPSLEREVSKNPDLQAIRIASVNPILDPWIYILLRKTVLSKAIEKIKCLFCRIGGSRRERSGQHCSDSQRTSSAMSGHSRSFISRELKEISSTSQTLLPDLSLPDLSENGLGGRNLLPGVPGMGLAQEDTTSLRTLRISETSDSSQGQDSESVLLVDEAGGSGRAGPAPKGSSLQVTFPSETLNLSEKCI
T1 sequence (P43116 whole entry): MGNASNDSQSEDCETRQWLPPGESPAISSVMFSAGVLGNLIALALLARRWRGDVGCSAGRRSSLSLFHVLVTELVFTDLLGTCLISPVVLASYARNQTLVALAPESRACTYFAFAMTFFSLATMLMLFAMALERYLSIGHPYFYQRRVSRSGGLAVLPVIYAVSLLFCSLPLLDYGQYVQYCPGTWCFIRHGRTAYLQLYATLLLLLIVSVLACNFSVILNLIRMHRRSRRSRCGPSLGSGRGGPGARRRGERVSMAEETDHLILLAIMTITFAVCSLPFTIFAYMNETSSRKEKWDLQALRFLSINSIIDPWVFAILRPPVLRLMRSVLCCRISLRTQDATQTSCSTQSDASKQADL

| Structure (SMILES) | Ki [1] [nM] | EC50 [2] [nM] | Ki [5] [nM] | EC50 [6] [nM] | other results |
| --- | --- | --- | --- | --- | --- |
| CCCCCC[C@H](O)/C=C/[C@H]1CCC(=O)N1CCc1ccc(C(=O)O)cc1 | 54 | – | – | – | – |
| O=C(O)c1ccc(CCN2C(=O)CC[C@@H]2/C=C/[C@@H](O)Cc2ccccc2)cc1 | 2540 | 434 | – | 0.03 | – |
| CC[C@H](O)/C=C/[C@H]1CCC(=O)N1CCc1ccc(C(=O)O)cc1 | > 10000 | – | 490 | – | – |
| CCCC1([C@H](O)C/C=C/[C@H]2[C@H](O)CC(=O)[C@@H]2CCCCCCC(=O)OC)CCC1 | – | – | – | – | Activity (Mus musculus [4]): inactive |
| CCCCC(C)(C)[C@H](O)/C=C/[C@H]1CCC(=O)N1CCc1ccc(C(=O)O)cc1 | 141 | 19 | 9 | 3 | – |
| CCC[C@H](O)/C=C/[C@H]1CCC(=O)N1CCc1ccc(C(=O)O)cc1 | 25000 | – | 27 | – | – |

The next lines start with results.

| Ki [1] [nM] | EC50 [2] [nM] | Ki [5] [nM] | EC50 [6] [nM] | Structure (SMILES) | other results |
| --- | --- | --- | --- | --- | --- |
| 21 | 3 | 2 | 0.3 | CCCCC1([C@@H](O)/C=C/[C@H]2CCC(=O)N2CCc2ccc(C(=O)O)cc2)CCC1 | Activity (Mus musculus [3]): inactive; ED50 (Mus musculus [4]): 1 mg/kg |
| – | 15 | – | 0.02 | CCCCC[C@H](O)/C=C/[C@H]1CCC(=O)N1CCc1ccc(C(=O)O)cc1 | ED50 (Cavia porcellus [7]): 0.0017 mg/kg; Inhibition (Cavia porcellus [8]): >50%; Vd [9]: 42.4 L/kg; AUC (Rattus norvegicus [10]): 18095.3 ng·h/mL; AUC (Rattus norvegicus [11]): 35175.6 ng·h/mL; AUC (Rattus norvegicus [12]): 14657.8 ng·h/mL; half-life [13]: 14.3 h; half-life [14]: 31.6 h; half-life [15]: 20.8 h; Tmax [16]: 4.98 min; Tmax [17]: 0.25 h; Tmax [18]: 4 h; clearance [19]: 9.17 mL/min/kg; F (Rattus norvegicus [20]): 33%; F (Rattus norvegicus [21]): 82% |
| 425 | 80 | 1 | 0.04 | CCCC[C@H](O)/C=C/[C@H]1CCC(=O)N1CCc1ccc(C(=O)O)cc1 | – |
| 1000 | 250 | 0.02 | 0.03 | O=C(O)c1ccc(CCN2C(=O)CC[C@@H]2/C=C/[C@@H](O)Cc2cccc(Cl)c2)cc1 | Activity (Mus musculus [3]): inactive |
